# In patent publication US20160101048A1, “+L-CARNOSINE ZINC FORMULATIONS AND METHODS OF USE” (priority 2014, published 2016):
# Assays:
# [1] = Particle size distribution of polymeric L-carnosine zinc; format: physicochemical; conditions: L-carnosine zinc used in Comparative Example 1
# Method: Step 2) Polymeric L-carnosine zinc with a particle size range of about 0.1 micron to about 85 microns, with a particle distribution such that 90% of the particles are 24.925 microns or smaller, 50% are 5.664 microns or smaller, and 10% are 0.826 or smaller, and the mean diameter was 9.878 microns was added to the hydrogel prepared in Step 1 to produce a composite polymeric hydrogel consisting of 150 mg L-carnosine zinc suspended in 5 ml of hydrogel.
# ulcer tissue = conditions: chelate versus simple mixture; cited from earlier work
substance,measurement,setting,value
N-(3-aminopropionyl)-L-histidinatozinc [L-carnosine zinc],mean diameter,[1],9.878 microns
same,"particle distribution, 10% of the particles are this size or smaller",[1],≤ 0.826
same,"particle distribution, 50% of the particles are this size or smaller",[1],≤ 5.664 microns
same,"particle distribution, 90% of the particles are this size or smaller",[1],≤ 24.925 microns
same,effectiveness compared with co-administration of a zinc salt together with L-carnosine,ulcer tissue,more effective than the co-administration of a zinc salt together with L-carnosine in a simple mixture
